Values joined by “and” are separate entries in the source; they are usually repeats but may differ in a detail not shown here. Identical values can stand only once. “Also recorded” adds a separate entry of the source. Like-named read-outs stand apart in the source and are kept apart here.
Key:
[1] = system: LPS-induced cytokine production in whole blood; assay: Ex vivo LPS whole blood challenge in participants of Study BP40387 (MAD); parameters: species or system human
Experimental: In addition to the CB2R-TE whole blood assay, an in vitro LPS whole blood challenge assay was applied using blood from healthy participants that received multiple 300 mg doses of RO6868847 6 in the MAD study.
In example 2, target engagement of RO6868847 was assessed on circulating B-cells from whole blood samples utilizing a newly developed exploratory flow cytometry assay to monitor RO6868847-induced CB2 receptor internalization on B-cells. […] Upon treatment discontinuation CB2 receptor surface expression returned to baseline approximately within 1 week. Target engagement appeared to reach a plateau at doses of 100 mg RO6868847 with only marginal increases at higher doses of RO6868847. In example 2, pro-inflammatory cytokine production was induced by ex vivo stimulation with LPS in freshly obtained whole blood samples, to measure downstream markers of RO6868847-mediated CB2 receptor internalization and explore its pharmacological profile. Serum levels of TNF-α, G-CSF, IL-1β, and […], of participants in Study BP40387 were assessed to investigate the changes of these cytokines in the presence of repeated dose administration of up to 300 mg RO6868847 once-daily for 14 days. […] It should be noted that the IL1-β analysis was negatively affected by a substantial proportion of baseline data, not being reportable (see FIG. 8), especially at the highest tested doses of 300 mg of RO6868847. Substantial variability in these measurements was observed. However, this was expected and no dedicated predefined statistical analysis was performed since cohort sizes were small for this exploratory assessment.

human CB2 [2] = target: T1, human CB2 (Homo sapiens, UniProt P34972); assay: Radioligand binding to CB2, CHO cells expressing recombinant CB2
T1 construct: expressed in transfected cells; host or cells: CHO cells

[3] = system: 78 additional receptors and ion channels; assay: Radioligand binding assays on additional receptors and ion channels
leukostasis in the eye = assay: Leukostasis in the eye, rodent diabetic and non-diabetic model; assay type: in vivo
Experimental: Pharmacological studies were performed in vitro and in vivo to investigate the potency, selectivity and activity of RO6868847. Pharmacological effects were determined in vivo in two different diabetic animal models which include the streptozotocin (STZ)-induced rat Type 1 diabetes and genetic Type 2 diabetes mouse models as well as in two acute models with acute inflammatory stimulus (LPS-injections) or laser injury (CNV). Additional in vitro pharmacology studies were performed to explore the pharmacological effect of RO6868847 and the suitability of the assays as biomarkers of target engagement and pharmacodynamic effect (PD) in human whole blood obtained from either healthy volunteers or diabetic patients.
The diversity of the tested models (including acute challenge versus disease-modifying models) and the absence of a recommended nonclinical DME/DR model with proven clinical translatability presents a challenge for the estimation of pharmacologically active exposure in humans.

cynomolgus monkey CB2 = cynomolgus monkey CB2 (Macaca fascicularis, UniProt G7NVV5); assay: Forskolin-stimulated cAMP inhibition in stably transfected CHO cells; assay type: cell-based
From the text: Inhibition of cAMP accumulation in Chinese hamster ovary cells stably expressing recombinant CB2 was used to determine the functional potency of RO6868847 for different CB2 species and the selectivity over the closely related CB1. […] Table 4 summarizes the potency from different CB2 species.

rat CB2 = target: T2, rat CB2 (Rattus norvegicus, UniProt Q9QZN9); assay: as above; assay type: cell-based
T2 construct: expressed in transfected cells; host or cells: CHO cells
T2 sequence (Q9QZN9 1-360): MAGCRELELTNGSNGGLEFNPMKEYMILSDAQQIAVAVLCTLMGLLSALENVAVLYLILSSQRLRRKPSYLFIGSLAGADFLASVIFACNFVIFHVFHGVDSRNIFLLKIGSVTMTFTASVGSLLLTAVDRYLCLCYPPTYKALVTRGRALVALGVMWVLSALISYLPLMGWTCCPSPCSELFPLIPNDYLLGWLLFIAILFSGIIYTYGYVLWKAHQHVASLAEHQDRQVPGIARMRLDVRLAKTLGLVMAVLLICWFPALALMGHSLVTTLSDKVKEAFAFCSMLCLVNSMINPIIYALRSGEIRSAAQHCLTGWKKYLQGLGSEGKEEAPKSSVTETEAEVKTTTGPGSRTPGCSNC
From the text: (§1) Inhibition of cAMP accumulation in Chinese hamster ovary cells stably expressing recombinant CB2 was used to determine the functional potency of RO6868847 for different CB2 species and the selectivity over the closely related CB1.

human CB2 [4] = target: T1, human CB2; assay: as above; assay type: cell-based; conditions: for Emax: CHO, normalized to 10 μM CP55′940; for IC50: IC50 ± SE (nM), CHO cells
From the text: as §1

CB2 receptor on B-cells = target: T3, CB2 receptor on B-cells (Homo sapiens, UniProt P34972); assay: In vitro target engagement: CB2 surface expression on peripheral B cells in whole blood (flow cytometry); assay type: cell-based; conditions: for Emax: read-out: Mean Emax ± SD (%)
T3 construct: B cells show a low but robust surface expression of CB2; endogenous in cells; host or cells: B cells in human whole blood (healthy participants, diabetic patients)
From the text: To monitor target engagement by RO6868847 in humans, a flow cytometry assay was developed utilizing an in-house monoclonal anti-human CB2 antibody in combination with established blood cell markers (CD45, CD14, CD3, and CD19) (1078220). […] As with most GPCR agonists, RO6868847 is expected to trigger CB2 receptor internalization upon CB2 activation, resulting in decreased surface detection. In order to establish this measure as a surrogate target engagement biomarker, freshly isolated whole blood samples (n=9) from healthy participants were incubated in duplicates in vitro for 1 hour at 37° C. with eight different increasing concentrations of RO6868847 and were subsequently subjected to the flow cytometry assay (1078220).
The availability of this in vitro target engagement assay also enabled us to explore the target engagement—exposure response in blood samples obtained from patients with diabetic mellitus (Type 1 and Type 2) and healthy controls matched for age, gender and BMI (Table 6) (1097891). This population was selected as it is similar to the envisaged target patient population for the proof-of-concept Phase II trial, encompassing diabetic patients according to definition by the World Health Organization and/or the American Diabetes Association.

[5] = steady-state, up to 300 mg once-daily for 14 days

T3 sequence (P34972 whole entry): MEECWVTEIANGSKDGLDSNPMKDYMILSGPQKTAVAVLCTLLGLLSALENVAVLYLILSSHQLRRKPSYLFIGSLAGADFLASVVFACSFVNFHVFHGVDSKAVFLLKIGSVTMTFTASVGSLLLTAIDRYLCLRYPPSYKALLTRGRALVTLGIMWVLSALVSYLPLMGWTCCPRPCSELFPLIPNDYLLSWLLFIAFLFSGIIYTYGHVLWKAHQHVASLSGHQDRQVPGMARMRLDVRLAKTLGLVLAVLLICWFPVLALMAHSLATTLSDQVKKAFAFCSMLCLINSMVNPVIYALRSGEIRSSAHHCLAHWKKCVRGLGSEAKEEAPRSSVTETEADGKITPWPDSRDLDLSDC
T1 sequence (P34972 whole entry): as above
cynomolgus monkey CB2, sequence (G7NVV5 1-360): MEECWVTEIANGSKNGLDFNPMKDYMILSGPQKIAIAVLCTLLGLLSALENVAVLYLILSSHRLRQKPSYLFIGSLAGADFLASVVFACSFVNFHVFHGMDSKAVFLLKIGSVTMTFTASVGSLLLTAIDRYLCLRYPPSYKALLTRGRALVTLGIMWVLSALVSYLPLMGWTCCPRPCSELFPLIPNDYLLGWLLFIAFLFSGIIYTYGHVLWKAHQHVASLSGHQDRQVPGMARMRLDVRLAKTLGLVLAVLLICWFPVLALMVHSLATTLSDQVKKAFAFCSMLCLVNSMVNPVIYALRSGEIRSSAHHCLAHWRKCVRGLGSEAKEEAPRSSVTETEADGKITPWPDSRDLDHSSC

## Cn1nnnc1Cn1nnc2c(N3CC[C@H](O)C3)nc(C(C)(C)C)nc21 [RO6868847, (3S)-1-[5-tert-butyl-3-[(1-methyltetrazol-5-yl)methyl]triazolo[4,5-d]pyrimidin-7-yl]pyrrolidin-3-ol]
[1]; multiple doses, MAD
  LPS-induced cytokine release / pro-inflammatory cytokine production: appeared to attenuate; also recorded: attenuation of LPS-induced cytokine release was observed only at the higher end of the dose range
[1]; [5]
  IFN-γ level after ex vivo LPS vs baseline: did not show any detectable trend
  TNF-α, G-CSF and IL1-β levels after ex vivo LPS vs baseline: concentration-dependent effect
Human CB2 [2]
  IC50: 117 ± 26.3 nM
  Ki: 51.3 nM
[3]
  selectivity for CB2: excellent selectivity for CB2
Leukostasis in the eye
  leukostasis in the eye: inhibition of leukostasis in the eye
Cynomolgus monkey CB2; CHO cells
  IC50: 1.06 ± 0.08 nM
Cynomolgus monkey CB2; CHO, normalized to 10 μM CP55′940
  Emax: 94.6%
Rat CB2
  IC50: 0.58 ± 0.04 nM
Rat CB2; CHO, Rats, normalized to 10 μM CP55′940
  Emax: 94.7%
Human CB2 [4]
  agonist character at human CB2: potent, full agonist
Human CB2 [4]; Human
  Emax: 103%
Human CB2 [4]; second row printed 'Human'
  Emax: 101%
  IC50: 2.6 ± 0.14 nM
Human CB2 [4]; Human, four independent experiments
  IC50: 2.81 ± 0.28 nM
CB2 receptor on B-cells; DM
  Fold change vs HPs: 1.8x
CB2 receptor on B-cells; DM, n = 8
  Emax: 56.2 ± 11.7%
CB2 receptor on B-cells; Healthy Participants
  Fold change vs HPs: 1
CB2 receptor on B-cells; Healthy Participants, n = 9
  CB2 surface expression on B-cells: concentration-dependent reduction of CB2 surface expression on B-cells
  Mean Emax ± SD (%): 55.0 ± 4.6 (n = 9) %
  Emax: 55 ± 4.6%
CB2 receptor on B-cells; Matched Healthy
  Fold change vs HPs: 2.6 x
CB2 receptor on B-cells; Matched Healthy, n = 8
  Emax: 55.7 ± 6.8%
CB2 receptor on B-cells; Mean IC50 (CB2 on B-cells) ± SD (nM), DM, n = 8, one outlier excluded
  IC50: 172 ± 82 nM
CB2 receptor on B-cells; Mean IC50 (CB2 on B-cells) ± SD (nM), Healthy Participants, n = 9, 1 hour at 37° C.
  IC50: 96.5 ± 27.1 nM
CB2 receptor on B-cells; Mean IC50 (CB2 on B-cells) ± SD (nM), Matched Healthy, n = 8
  IC50: 253 ± 206 nM
CB2 receptor on B-cells; diabetic and matched (elderly) healthy vs younger healthy participants
  fold higher concentration/exposure required for similar CB2R target engagement: 2-3 fold and ~3 fold
CB2 receptor on B-cells; diabetic patients and matched healthy participants
  CB2 receptor internalization on the surface of B-cells: dose-dependent CB2 receptor internalization
CB2 receptor on B-cells; mean IC50 (TE), Healthy participants, 9 donors, converted
  IC50: 96.5 nM

Reference: patent US20250195528A1, “DOSE REGIMEN OF VICASINABIN” (Hoffmann-La Roche Inc., priority 2022, published 2025)
